We go through 17 compounds from patent publication US20100249071A1, “Modulators of S1P and Methods of Making And Using” (Exelixis, Inc., priority 2009, published 2010).

One experiment has as its target T1, S1P3 (Homo sapiens, UniProt Q99500).
T1 construct: host or cells: HEK293 (transient transfection)
Description: S1P3 Tango β-arrestin recruitment assay in HEK293 cells (Assay 5). Type of experiment: cell-based. An outline of the steps: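 HEK293 cells transiently expressing S1P3 fused via TEV-cleavable linker to tTA, with β-arrestin2–TEV, treated 16-18 h at 37 °C with compounds (top 10 μM, 10-point 3-fold, 1% DMSO). Luciferase reporter luminescence normalised to DMSO background and 5 μM S1P control as percent activity; EC50 from concentration-response curves.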
A general note: Recruitment of arrestin is a read-out of receptor activation apart from second messengers.

The target of the next experiment is T2, S1P1 (Homo sapiens, UniProt P21453).
T2 construct: host or cells: U2OS
Briefly: Tango β-arrestin recruitment assay in U2OS cells (Assay 2b). It is filed as cell-based. The note with it: read-out: Assay 2b EC50. The essentials:
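In this agonist-mode Tango assay, U2OS cells carrying S1P1 and the reporter were serum-starved 48 h, then exposed overnight at 37 °C to compound (10 points, 3-fold, top 1 μM, 1% DMSO). β-Lactamase F460/F530 ratio was normalized to 1 μM S1P, and EC50 was fitted.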

A further experiment relates to circulating lymphocytes. Description: Lymphocyte PD assay in rats. The note with it: 24 hours after oral single dose at 3 mg/kg, Female CD rats (Sprague Dawley), compared to vehicle-only group. It is filed as in vivo, rat. As for the experimental part:
Suppression of circulating lymphocytes was assessed as a PD endpoint in jugular vein canulated Sprague Dawely (SD) rats 6-8 weeks of age and weighing approximately 200 g (Taconic Farms, Germantown, N.Y.). Prior initiating a study, rats were acclimated to the vivarium facility (12 h light cycle, 12 h dark cycle) for a minimum of 2 days. During a study, animals were provided food and water ad libitum and housed in a room conditioned at 70-75° F. and 60% relative humidity. All animals were examined daily for health assessment.
The Compound of the Invention were formulated and animals was dosed at a volume of 4 mL/kg. At indicated timepoints, whole blood was collected via jugular vein canulas into EDTA-coated tubes and hematology analysis was performed on an Abbott Cell-Dyn 3700 hematology analyzer. Readouts included white blood cells (total, differential, and % of total), neutrophils, lymphocytes, monocytes, eosinophils, basophils, RBC, HGB, hematocrit, mean corpuscule volume, mean corpuscule HGB concentration, RBC distribution width, platelets, and mean platelet volume.

For experiment [1], the target named is T3, hS1P1R (hEdg1) membrane protein (Homo sapiens, UniProt P21453).
T3 construct: purchased Lonza
Briefly: hS1P1R GTPγS binding assay (Assay 3a). Type of experiment: biochemical. The essentials: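 Membranes (4 μg) expressing hS1P1R incubated 1 h at room temperature with 30 μM GDP, 0.1 nM [^35S]GTPγS, 0.25% fatty acid free BSA and serially diluted agonist in Tris-HCl pH 7.9/NaCl/MgCl2/EGTA buffer. Bound [^35S]GTPγS captured on WGA SPA beads (further 1 h) and counted.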

Experiment [2] addresses T4, hS1PR5 (hEdg8) membrane protein (Homo sapiens, UniProt Q9H228).
T4 construct: expressed in transfected cells; host or cells: CHO
Description: hS1P5R GTPγS binding assay (Assay 4). Type of experiment: biochemical. An outline of the steps:
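Membranes (5 μg) from CHO cells expressing hS1PR5, incubated 1 h at room temperature with 30 μM GDP, 0.1 nM [35S]GTPγS, 0.25% fatty acid free BSA and serially diluted compound in pH 7.9 Tris buffer with MgCl2. WGA SPA beads added for another 1 h, then bound [35S]GTPγS counted by scintillation.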
Background: GTPγS resists hydrolysis and so accumulates on activated G proteins.

[3] abbreviates: * = rEC50 measured rather than EC50, read-out: Assay 5 rEC50 (relative EC50, cells marked *).

Like-named read-outs stand apart in the source and are kept apart here.

T4 sequence (Q9H228 whole entry): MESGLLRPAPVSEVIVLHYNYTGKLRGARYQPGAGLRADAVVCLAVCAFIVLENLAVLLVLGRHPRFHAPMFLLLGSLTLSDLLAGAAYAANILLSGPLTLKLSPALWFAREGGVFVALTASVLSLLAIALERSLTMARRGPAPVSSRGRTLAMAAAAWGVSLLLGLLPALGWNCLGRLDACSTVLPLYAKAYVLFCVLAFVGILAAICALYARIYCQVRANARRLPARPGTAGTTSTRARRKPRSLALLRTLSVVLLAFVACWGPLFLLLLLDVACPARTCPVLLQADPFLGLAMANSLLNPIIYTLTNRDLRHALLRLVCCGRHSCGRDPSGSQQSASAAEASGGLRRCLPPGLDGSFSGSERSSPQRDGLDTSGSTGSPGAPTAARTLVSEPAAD
T1 sequence (P32121 whole entry): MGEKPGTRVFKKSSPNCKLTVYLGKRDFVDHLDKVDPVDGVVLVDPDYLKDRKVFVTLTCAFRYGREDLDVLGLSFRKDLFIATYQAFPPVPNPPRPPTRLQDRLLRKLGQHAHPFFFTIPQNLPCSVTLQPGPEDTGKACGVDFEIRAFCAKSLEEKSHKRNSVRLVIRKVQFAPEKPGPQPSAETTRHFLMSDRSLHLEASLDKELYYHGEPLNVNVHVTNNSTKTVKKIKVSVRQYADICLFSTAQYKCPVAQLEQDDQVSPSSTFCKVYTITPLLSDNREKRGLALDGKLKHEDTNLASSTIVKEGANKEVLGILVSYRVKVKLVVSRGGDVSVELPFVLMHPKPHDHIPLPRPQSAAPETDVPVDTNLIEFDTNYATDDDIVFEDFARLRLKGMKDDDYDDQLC
T1 sequence (Q99500 whole entry): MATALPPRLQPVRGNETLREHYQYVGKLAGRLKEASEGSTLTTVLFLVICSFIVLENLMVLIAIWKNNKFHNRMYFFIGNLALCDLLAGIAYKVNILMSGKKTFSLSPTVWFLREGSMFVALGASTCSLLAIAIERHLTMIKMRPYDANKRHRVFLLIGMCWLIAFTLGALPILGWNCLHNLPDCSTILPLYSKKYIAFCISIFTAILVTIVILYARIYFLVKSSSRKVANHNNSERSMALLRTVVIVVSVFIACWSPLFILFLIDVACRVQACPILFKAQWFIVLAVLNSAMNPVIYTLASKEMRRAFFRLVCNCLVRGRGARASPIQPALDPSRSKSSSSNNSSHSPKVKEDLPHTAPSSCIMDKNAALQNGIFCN
T2 sequence (P32121 whole entry): as the sequence (P32121 whole entry) above
T2 sequence (P21453 whole entry): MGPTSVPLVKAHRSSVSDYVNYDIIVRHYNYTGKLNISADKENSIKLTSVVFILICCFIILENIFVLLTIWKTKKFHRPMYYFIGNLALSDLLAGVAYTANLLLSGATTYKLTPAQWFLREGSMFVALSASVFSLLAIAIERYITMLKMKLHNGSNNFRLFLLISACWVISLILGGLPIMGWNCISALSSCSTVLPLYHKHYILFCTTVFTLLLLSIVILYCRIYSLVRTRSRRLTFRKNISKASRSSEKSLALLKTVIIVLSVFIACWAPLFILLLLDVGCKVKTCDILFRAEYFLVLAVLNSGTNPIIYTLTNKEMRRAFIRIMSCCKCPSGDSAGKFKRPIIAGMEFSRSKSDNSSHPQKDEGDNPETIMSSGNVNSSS
T3 sequence (P21453 whole entry): as above

Consider `CC(C)Oc1ccc(-c2nnc(-c3cc(F)c(OC[C@H](N)[C@@H](C)O)cc3Cl)s2)cc1Cl` [Entry 73, (2R,3S)-3-amino-4-{[5-chloro-4-(5-{3-chloro-4-[(1-methylethyl)oxy]phenyl}-1,3,4-thiadiazol-2-yl)-2-fluorophenyl]oxy}butan-2-ol], for which the EC50 – broadly, the concentration giving half of the maximal effect – is more than 10000 nM at S1P3 (read-out: Assay 5 EC50), not above 10 nM at S1P1, not above 10 nM in experiment [1] and 10 to 50 nM in experiment [2]. Further, the “Lymphocyte Counts (p < 0.05)” value in the experiment on circulating lymphocytes is −89%.

Take `CC(C)Oc1ccc(-c2nnc(-c3cc(F)c(OC[C@H](N)CO)cc3Cl)s2)cc1C#N` [Entry 37, 5-[5-(4-{[(2R)-2-amino-3-hydroxypropyl]oxy}-2-chloro-5-fluorophenyl)-1,3,4-thiadiazol-2-yl]-2-[(1-methylethyl)oxy]benzonitrile]: the EC50 on S1P3 (read-out: Assay 5 EC50) was more than 10000 nM; at S1P1, not above 10 nM; in experiment [1] it was not above 10 nM; in experiment [2], 10 to 50 nM. Further, the “Lymphocyte Counts (p < 0.05)” value in the experiment on circulating lymphocytes is −93%.

On to `Cc1cc(-c2nnc(-c3cc(F)c(OC[C@H](N)[C@H](C)OP(=O)(O)O)cc3Cl)s2)cc(NC(C)C)n1` [Entry 95, (1S,2S)-2-amino-3-{[5-chloro-2-fluoro-4-(5-{2-methyl-6-[(1-methylethyl)amino]pyridin-4-yl}-1,3,4-thiadiazol-2-yl)phenyl]oxy}-1-methylpropyl dihydrogen phosphate], for which the EC50 is more than 250 nM on S1P3 (read-out: Assay 5 EC50), not above 10 nM at S1P1, not above 10 nM in experiment [1] and 50 to 250 nM in experiment [2].

Regarding `CC(C)Oc1ccc(-c2nnc(-c3cc(F)c(OC[C@H](N)COP(=O)(O)O)cc3Cl)s2)cc1C#N` [Entry 79, (2S)-2-amino-3-{[5-chloro-4-(5-{3-cyano-4-[(1-methylethyl)oxy]phenyl}-1,3,4-thiadiazol-2-yl)-2-fluorophenyl]oxy}propyl dihydrogen phosphate], the EC50 on S1P3 (read-out: Assay 5 EC50) was not above 250 nM; on S1P1 it was not above 10 nM; in experiment [1], not above 10 nM; in experiment [2], not above 10 nM.

Take `Cc1cc(-c2nnc(-c3cc(F)c(OC[C@H](N)[C@@H](C)O)cc3Cl)s2)ccc1OC(C)C` [Entry 60, (2R,3S)-3-amino-4-{[5-chloro-2-fluoro-4-(5-{3-methyl-4-[(1-methylethyl)oxy]phenyl}-1,3,4-thiadiazol-2-yl)phenyl]oxy}butan-2-ol]: the EC50 on S1P3 (read-out: Assay 5 EC50) was more than 10000 nM; at S1P1, 10 to 50 nM; in experiment [1], not above 10 nM; in experiment [2], 10 to 50 nM.

As for `CC(C)Oc1ccc(-c2nnc(-c3cc(F)c(OC[C@@H](N)COP(=O)(O)O)cc3Cl)s2)cc1Cl` [Entry 16, (2R)-2-amino-3-{[5-chloro-4-(5-{3-chloro-4-[(1-methylethyl)oxy]phenyl}-1,3,4-thiadiazol-2-yl)-2-fluorophenyl]oxy}propyl dihydrogen phosphate], the EC50 at S1P3 (setting [3]) was not above 250 nM; at S1P1, not above 10 nM; in experiment [1] it was not above 10 nM; in experiment [2], 10 to 50 nM.

For `CC(C)Oc1ccc(-c2nnc(-c3cc(F)c(OC[C@H](N)[C@H](C)O)cc3Cl)s2)cc1C#N` [Entry 83, 5-[5-(4-{[(2S,3S)-2-amino-3-hydroxybutyl]oxy}-2-chloro-5-fluorophenyl)-1,3,4-thiadiazol-2-yl]-2-[(1-methylethyl)oxy]benzonitrile], the EC50 on S1P3 (read-out: Assay 5 EC50) is more than 10000 nM; on S1P1, not above 10 nM; in experiment [1], not above 10 nM; in experiment [2] it was 10 to 50 nM.

For `CC(C)Oc1ccc(-c2nnc(-c3cc(Cl)c(OC[C@H](N)CO)c(Cl)c3)s2)cc1Cl` [Entry 39, (2R)-2-amino-3-{[2,6-dichloro-4-(5-{3-chloro-4-[(1-methylethyl)oxy]phenyl}-1,3,4-thiadiazol-2-yl)phenyl]oxy}propan-1-ol], the EC50 was more than 10000 nM at S1P3 (read-out: Assay 5 EC50), 50 to 250 nM on S1P1, not above 10 nM in experiment [1] and 10 to 50 nM in experiment [2].

In the case of `CC(C)Oc1ccc(-c2nnc(-c3cc(F)c(OC[C@@H](N)[C@H](C)O)cc3Cl)s2)cc1C#N` [Entry 55, 5-[5-(4-{[(2R,3S)-2-amino-3-hydroxybutyl]oxy}-2-chloro-5-fluorophenyl)-1,3,4-thiadiazol-2-yl]-2-[(1-methylethyl)oxy]benzonitrile], the EC50 at S1P3 (read-out: Assay 5 EC50) is not above 250 nM; at S1P1, not above 10 nM; in experiment [1], not above 10 nM; in experiment [2], not above 10 nM.

For the compound `CC(C)Oc1ccc(-c2nnc(-c3cc(F)c(OC[C@H](N)CO)cc3Cl)s2)nc1Cl` [Entry 22, (2R)-2-amino-3-{[5-chloro-4-(5-{6-chloro-5-[(1-methylethyl)oxy]pyridin-2-yl}-1,3,4-thiadiazol-2-yl)-2-fluorophenyl]oxy}propan-1-ol], the EC50 at S1P3 (read-out: Assay 5 EC50) is more than 10000 nM; at S1P1 it was 10 to 50 nM; in experiment [1], 10 to 50 nM; in experiment [2] it was 50 to 250 nM.

Consider `CC(C)Oc1ccc(-c2nnc(-c3cc(F)c(OC[C@H](N)[C@@H](C)OP(=O)(O)O)cc3Cl)s2)cc1Cl` [Entry 51, (1R,2S)-2-amino-3-{[5-chloro-4-(5-{3-chloro-4-[(1-methylethyl)oxy]phenyl}-1,3,4-thiadiazol-2-yl)-2-fluorophenyl]oxy}-1-methylpropyl dihydrogen phosphate], for which the concentration giving a half-maximal response (EC50) was not above 250 nM on S1P3 (read-out: Assay 5 EC50), not above 10 nM on S1P1, not above 10 nM in experiment [1] and not above 10 nM in experiment [2].

In the case of `CC(C)Nc1ccc(-c2nnc(-c3cc(F)c(OC[C@H](N)COP(=O)(O)O)cc3Cl)s2)cn1` [Entry 52, (2S)-2-amino-3-{[5-chloro-2-fluoro-4-(5-{6-[(1-methylethyl)amino]pyridin-3-yl}-1,3,4-thiadiazol-2-yl)phenyl]oxy}propyl dihydrogen phosphate], the EC50 on S1P3 (setting [3]) is more than 250 nM; on S1P1 it was not above 10 nM; in experiment [1], not above 10 nM; in experiment [2] it was not above 10 nM.

Take `CC(C)Nc1ccc(-c2nnc(-c3cc(F)c(OC[C@H](N)[C@@H](C)O)cc3Cl)s2)cn1` [Entry 46, (2R,3S)-3-amino-4-{[5-chloro-2-fluoro-4-(5-{6-[(1-methylethyl)amino]pyridin-3-yl}-1,3,4-thiadiazol-2-yl)phenyl]oxy}butan-2-ol]: the concentration giving a half-maximal response (EC50) on S1P3 (read-out: Assay 5 EC50) is more than 10000 nM; on S1P1, 10 to 50 nM; in experiment [1], 250 to 2800 nM; in experiment [2] it was 250 to 2800 nM.

Turning to `CC(C)Oc1ccc(-c2nnc(-c3cc(F)c(OCC(N)CO)cc3Cl)s2)cn1` (stereo not shown) [Entry 19, 2-amino-3-{[5-chloro-2-fluoro-4-(5-{6-[(1-methylethyl)oxy]pyridin-3-yl}-1,3,4-thiadiazol-2-yl)phenyl]oxy}propan-1-ol], the EC50 on S1P3 (read-out: Assay 5 EC50) was more than 250 nM; at S1P1, not above 10 nM; in experiment [1], 50 to 250 nM; in experiment [2], 250 to 2800 nM.

Turning to `CC(C)Oc1ncc(-c2nnc(-c3cc(F)c(OC[C@@H](N)CO)cc3Cl)s2)cc1Cl` [Entry 32, (2S)-2-amino-3-{[5-chloro-4-(5-{5-chloro-6-[(1-methylethyl)oxy]pyridin-3-yl}-1,3,4-thiadiazol-2-yl)-2-fluorophenyl]oxy}propan-1-ol], the 50% effective concentration (EC50) is not above 250 nM at S1P3 (read-out: Assay 5 EC50), not above 10 nM on S1P1, 10 to 50 nM in experiment [1] and 250 to 2800 nM in experiment [2].

`CC(C)Oc1ccc(-c2nnc(-c3cc(F)c(OC[C@@H](N)COP(=O)(O)O)cc3Cl)s2)cc1Br` [Entry 12, (2R)-2-amino-3-{[4-(5-{3-bromo-4-[(1-methylethyl)oxy]phenyl}-1,3,4-thiadiazol-2-yl)-5-chloro-2-fluorophenyl]oxy}propyl dihydrogen phosphate]: the EC50 is not above 250 nM at S1P3 (setting [3]), not above 10 nM at S1P1, not above 10 nM in experiment [1] and not above 10 nM in experiment [2].

On to `CC(C)Oc1ccc(-c2nnc(-c3cc(F)c(OC[C@@H](N)CO)cc3Cl)s2)cc1Cl` [Entry 10, (2S)-2-amino-3-{[5-chloro-4-(5-{3-chloro-4-[(1-methylethyl)oxy]phenyl}-1,3,4-thiadiazol-2-yl)-2-fluorophenyl]oxy}propan-1-ol], for which the EC50 was not above 250 nM on S1P3 (read-out: Assay 5 EC50), not above 10 nM at S1P1, not above 10 nM in experiment [1] and 10 to 50 nM in experiment [2].
